Data on 15 molecules can be found in patent publication US20020058020A1, “Isolated amphiphilic peptides derived from the cytoplasmic tail of viral envelope proteins” (priority 1999, published 2002).

Ends that are not written are not given here. R1 = not defined here

A short description of data set [1]: Peptide-induced K+ release from unilamellar liposomes (Example 2). Particulars: 22° C.; for % K+ - Release POPC:POPG1:1: POPC:POPG 1:1 liposomes; for % K+ - Release POPC:POPG,3:1: POPC:POPG 3:1 liposomes; for % K+ - Release POPC: POPC liposomes.
Protocol: Peptide-induced K′ release from liposomes. Liposomes (see above) were made in 100 nM KCl, 10 mM Tris-HCl, pH 7.5. The external KCl was reduced to less than 0.1 mM by two passages through a PD10 column (Pharmacia Biotech AB, Uppsala, Sweden) equilibrated in NaCl buffer (100 mM NaCl, 10 mM Tris-HCl, pH 7.5). Potassium release from liposomes was detected by a K′-selective microelectrode (Micro-electrode Inc.) and recorded on VHS tape using a pulse-code modulator. Peptides were assayed at 10 μM and 30 μM.
Unilamellar liposomes formed from (i) POPC; (ii) POPC and POPG at a molar ratio of POPC: POPG of 3:1, or (iii) POPC and POPG at a molar ratio of POPC: POPG of 1:1 were prepared in 100 mM KC1 according to the procedure described in Example 1. Peptide-induced K+ release from the liposomes also was detected according to the procedure described in Example 1. All measurements were carried out at 22° C.
The nature of data set [2]: Peptide-induced K+ release from liposomes (Example 1). Format: biochemical. Particulars: for % K+-release: liposomes POPG/POPC 1:3, 10 mg/ml, loaded with 100 mM KCl, total release with 0.1 M Triton X-100, <2% not detectable. On the procedure: Liposomes were prepared from 1-Palmitoyl-2-Oleoyl-sn-Glycero-3-(Phospho-rac-(1-glycerol)) (POPG) and 1-Palmitoyl-2-Oleoyl-sn-Glycero-3-Phosphocholine (POPC) (Avanti Polar Lipids Inc., Birmingham, Ala.). The lipid-chloroform solutions were mixed at a molar ratio of 1:3 (POPG:POPC), dried under N2 and vacuum, sonicated, and taken through freeze-thaw cycles repeated a minimum of 5 times.
Peptide-induced K′ release from liposomes. […] Enzymol., Vol. 235, pgs. 699-713 (1994).
^b Percentage of the intraliposomal K^+ release induced by […] peptides from liposomes (POPG/POPC 1:3, 10 mg/ml) loaded with 100 mM KC1 and dialyzed against 100 mM NaCl buffer. […] . Total K^+ release was obtained with 0.1 M Triton X-100.
A novel approach was developed to measure the membrane activity of peptide 598-616. Peptide-induced release of K^+ from KCl-loaded lipid vesicles was detected using a K^+-selective electrode. The addition of 10 μM wild type peptide 598-616 causes 29% K^+ content release. At a concentration of 30 μM, about 70% K^+ content is released from liposomes (data not shown). For comparison, 10 μM melittin, a lytic component of bee venom, causes 31% K^+ content release.

Data set [3] is described as follows: Electron paramagnetic resonance analysis of spin labeled peptides with liposomes. Format: physicochemical. To be noted: for aggregation state by EPR (in words): membrane-bound state or solution. On the procedure:
B. Spin-Labeled Peptide 598-616 Associates With Membranes As Determined By Electron Paramagnetic Resonance (EPR) Analysis. […]; lipid to peptide molar ratio 100:1; solid line). The arrow marks the position of a small component of free spin.
Spin labeled peptides (50 μM) diluted in buffer (50mM NaPO4, 100 mM NaCl, pH 7.4) were added to the extruded liposomes at a peptide-to-lipid molar ratio of greater than 1/100. X-band electron paramagnetic resonance (EPR) spectra were recorded at room temperature. The spin accessibility parameter (II) was determined for 20 mM nickel ethylenediaminediacetic acid, or NiEDDA, and O2 in equilibrium with air as previously described (Farahbakhsh, et al., Photochemistry and Photobiolocy, Vol. 56, pgs. 1019-1033 (1992)). The topology or context parameter φ was calculated as φ=ln [II(O2)/II(NiEDDA)] (Altenbach, et al., Proc. Nat. Acad. Sci., Vol. 91, pgs. 1667-1671 (1994)).
The structural features of the peptide 598-616 bound to membranes were investigated further by EPR analysis of corresponding peptides modified to contain single R1 nitroxide side chains at the positions indicated in FIG. 2C. For each labeled peptide in solution, the EPR spectrum consisted of three sharp resonance lines characteristic of a random coil for peptides containing R1 (Farahbakhsh, et al., Biochemistry, Vol. 34, pgs. 509-516 (1995)). A representative example is shown by the dotted line in FIG. 2B for the V606-R1 peptide. […] Judging from the line shapes, the contribution from the unbound peptide is very small, less than 1% (arrow FIG. 2B). All peptides 598-616 gave similar effects, although the individual line shapes varied (data not shown).
Spin-spin interactions between nitroxides result in spectral broadening over and above that due to motional effects (Mchaourab, et al., Biochemistry, Vol. 36, pgs. 307-316 (1997)).

The nature of data set [4]: Circular dichroism analysis of α-helical content. Format: physicochemical. Particulars: for secondary structure by CD (in words): aqueous vs liposome environment. On the procedure: A. Membrane-Dependent Formation Of An α-Helical Structure By Peptide 598-616 As measured By Circular Dichroism (CD). The plot represents an average of 9 CD spectra for 50 μM peptide 598-616 in an aqueous solution (20 mM NaPO4,pH 7, dashed line), and in presence of liposomal membrane vesicles (POPG/POPC [1:3] liposomes in 20 mM Na2 PO4, pH 7.4; lipid to peptide molar ratio 100:1; solid line). The measurements were obtained for wavelength 195-250 nm at 20 mdeg sensitivity.
The peptides for circular dichroism (CD) analysis were used at a final concentration of 50 μM. The stock solution of extruded liposomes at 50 mg/ml was used. The final peptide-to-lipid molar ratio was 1/100 in 20 mM Na2PO4 buffer. CD spectra were obtained using a Jasco J-600 CD spectrometer. Samples were scanned from 250 nm to 195 nm using cuvettes with a path length of 1 mm. Each result represents an average of 9 scans.
To analyze the secondary structure of the peptides corresponding to MoMuLV cytoplasmic tail segments, the peptides 598-616 and 617-632 were evaluated by CD spectroscopy. The CD spectrum produced by the peptide 598-616 absorption of polarized light in an aqueous environment is characteristic of a random coil conformation (FIG. 2A, dotted line). […] The estimated percent α-helicity for peptide 598-616 is nearly 60%. Similar α-helical properties have been observed for the lytic amphiphilic segments from HIV-1 env cytoplasmic tail and the active component of bee venom, melittin (Eisenberg, et al., Biopolymers, Vol. 29, pgs. 171-177 (1992)). Thus, the computer-predicted α-helical structure for the region 598-616 is confirmed for peptide 598-616 by CD analysis in the presence of membranes.
For orientation: CD spectra are sensitive to the conformation of chiral molecules.

The test system of data set [5] is env-transfected 293T cells. In words: Cell surface envelope protein expression by indirect immunofluorescence. To be noted: relative, WT = 100.
Protocol: NIH3T3 cells (1H10^5) , 293T or 293/12 (1H10^6) per 60 mm2 plates were transfected according to the Ca(PO4)2 transfection protocol of 5′-3′ Inc. (Boulder, Colo.) (day 1). For cell surface expression and co-culture experiments, 15 μg env expression plasmid was used.
Cell Surface Expression And The Analysis Of Viral Envelope Particle Incorporation Assays were done as described in Januszeski, et al., J. Virol., Vol. 71, pgs.
For data set [6], the system named is NIH3T3 cells. The experiment in a line: Transduction assay, β-gal titer on NIH3T3 cells. Format: cell-based. Particulars: WT = 100.
The test system of data set [7] is XC6 cell co-cultured with env-transfected 293T cells. The experiment in a line: End point cell-to-cell fusion assay, 293T/XC6 co-culture. To be noted: relative fusion efficiency, WT = 100.
Protocol: Viral particles were obtained from 293T cells transfected transiently (n=3−5) with the expression plasmids for env, gag-pol, and β-gal, with wild type or mutant (616*, 601*, 598*, 595SR*, 578*, GLA ecto) env. Transduction efficiency of these virions (white bars=titers) was tested on NIH3T3 cells. The Env fusogenicity (filled bars =% fusion) was measured by expressing Env only in 293T cells. The indicator XC6 cells were added 24 hours post-transfection, were fixed 12 hours later and scored microscopically on ten 2 mm^2 grids for syncytia (cells with four or more nuclei).
Cell-To-Cell Fusion Assays For the end point fusion assay, 5×10^5 XC6 cells were added to the env transfected 293 T cells 20 hrs. post-transfection, and stained with methylene blue (0.01% in methanol) at about 36 hours post-transfection for syncytia (cells with 4 or more nuclei) scoring.
The end point fusion assay measures env-induced cell-to-cell fusion between env-transfected 293T cells and the ecotropic receptor expressing XC cells at 36 hrs post-transfection.
Data set [8] concerns NIH3T3 cells. The experiment in a line: Syncytia formation in env-transfected NIH3T3 cells. Format: cell-based. To be noted: relative fusion efficiency, normalized to 616* = 100.

Consider “598-611: peptide of MoMuLV env residues 598-611 (ILNRLVQFVKDRIS; UniProt P03385 631-644, looked up, fragment) [Peptide 598-611]”, for which, in data set [1], the “% K+ - Release POPC:POPG1:1” value was found to be 22% and the “% K+ - Release POPC:POPG,3:1” value came out at 13%.
Consider “598-616 D608C: peptide 598-616 with D608C substitution (ILNRLVQFVKCRISVVQAL; UniProt P03385 631-649, looked up, variant D608C)”, for which, in data set [1], the “% K+ - Release POPC” value worked out at 5%, the “% K+ - Release POPC:POPG1:1” value is 11% and the “% K+ - Release POPC:POPG,3:1” value amounted to 7%.
As for “598-616 F605C: peptide 598-616 with F605C substitution (ILNRLVQCVKDRISVVQAL; UniProt P03385 631-649, looked up, variant F605C)”, in data set [1], the “% K+ - Release POPC” value was 8%, the “% K+ - Release POPC:POPG1:1” value is 7% and the “% K+ - Release POPC:POPG,3:1” value came out at 4%.
The matching figures for “598-616 Q604C: peptide 598-616 with Q604C substitution (ILNRLVCFVKDRISVVQAL; UniProt P03385 631-649, looked up, variant Q604C)”: 29%, 28% and 20%.
The matching figures for “598-616 R601C: peptide 598-616 with R601C substitution (ILNCLVQFVKDRISVVQAL; UniProt P03385 631-649, looked up, variant R601C)”: 32%, 13% and 10%.
For the molecule “598-616 R609A: peptide 598-616 with Arg 609 Ala mutation (ILNRLVQFVKDAISVVQAL; UniProt P03385 631-649, looked up, variant R609A)”, in data set [2], the “loss of K+ release relative to wild type peptide 598-616” value was 75% and the “% K+-release” value was 9.9 ± 1.8%. Moreover, in data set [1], the “% K+ - Release POPC” value worked out at 11%, the “% K+ - Release POPC:POPG1:1” value stood at 0% and the “% K+ - Release POPC:POPG,3:1” value stood at 0%.
Regarding “598-632 Q604C: peptide 598-632 with Q604C substitution”, in data set [1], the “% K+ - Release POPC” value was determined as 6%, the “% K+ - Release POPC:POPG1:1” value is reported as 31% and the “% K+ - Release POPC:POPG,3:1” value amounted to 30%.
With “598-632: peptide representing the whole cytoplasmic tail region (598-632) [Peptide 598-632]”, the “aggregation state by EPR (in words)” value in data set [3] is “monomeric association with the membrane”. Moreover, the “secondary structure by CD (in words)” value in data set [4] is listed as “higher helical content in the presence of membrane vesicles than the peptide 598-616 alone”.
“602-616: peptide of MoMuLV env residues 602-616 (LVQFVKDRISVVQAL; UniProt P03385 635-649, looked up, fragment) [Peptide 602-616]”: in data set [1], the “% K+ - Release POPC” value was 2%, the “% K+ - Release POPC:POPG1:1” value was 5% and the “% K+ - Release POPC:POPG,3:1” value stood at 4%.
Regarding `CC[C@H](C)[C@H](NC(=O)CN)C(=O)NCC(=O)N[C@@H](C)C(=O)N[C@H](C(=O)N[C@@H](CC(C)C)C(=O)N[C@@H](CCCCN)C(=O)N[C@H](C(=O)N[C@@H](CC(C)C)C(=O)N[C@H](C(=O)N[C@H](C(=O)NCC(=O)N[C@@H](CC(C)C)C(=O)N1CCC[C@H]1C(=O)N[C@@H](C)C(=O)N[C@@H](CC(C)C)C(=O)N[C@H](C(=O)N[C@@H](CO)C(=O)N[C@@H](Cc1c[nH]c2ccccc12)C(=O)N[C@H](C(=O)N[C@@H](CCCCN)C(=O)N[C@@H](CCCNC(=N)N)C(=O)N[C@@H](CCCCN)C(=O)N[C@@H](CCCNC(=N)N)C(=O)N[C@@H](CCC(N)=O)C(=O)N[C@@H](CCC(N)=O)C(N)=O)[C@@H](C)CC)[C@@H](C)CC)[C@@H](C)O)[C@@H](C)O)C(C)C)C(C)C` [melittin, reference compound], the “K+ content release” value in data set [2] (10 μM peptide) was 31%. The “% K+-release” value in data set [2] was 30.9 ± 2.1%. For the same molecule, in data set [1], the “% K+ - Release POPC” value was found to be 31%, the “% K+ - Release POPC:POPG1:1” value is 27% and the “% K+ - Release POPC:POPG,3:1” value is recorded as 31%.
As to “ILNRLVQFVKDRISVVQAL (Moloney murine sarcoma virus) [Peptide 598-616, amino acid residues 598-616 of the wild type envelope protein of Moloney Murine Leukemia Virus]”, the “K+ content release” value in data set [2] (10 μM peptide) stood at 29%. In data set [2] (30 μM peptide, data not shown), the “K+ content release” value is “about 70%”. In data set [2], the “% K+-release” value is listed as 29.3 ± 3.6%. Further, in data set [3], the “aggregation state by EPR (in words)” value is on record as “monomeric association with the membrane”. In addition, in data set [1], the “% K+ - Release POPC” value stood at 9%, the “% K+ - Release POPC:POPG1:1” value amounted to 24% and the “% K+ - Release POPC:POPG,3:1” value worked out at 13%. Besides, the “estimated percent α-helicity” value in data set [4] (50 μM peptide in presence of liposomes, lipid to peptide 100:1) is listed as ~60%. For the same molecule, the “secondary structure by CD (in words)” value in data set [4] is “becomes α-helical”.
In the case of Magainin [reference compound], in data set [1], the “% K+ - Release POPC” value was found to be 8%, the “% K+ - Release POPC:POPG1:1” value is 51% and the “% K+ - Release POPC:POPG,3:1” value is listed as 43%.
Triton X-100 [reference compound]: the “% K+-release” value in data set [2] came to 100%. In data set [1], the “% K+ - Release POPC” value was determined as 100%, the “% K+ - Release POPC:POPG1:1” value is recorded as 100% and the “% K+ - Release POPC:POPG,3:1” value came to 100%.
On to “V606-R1 peptide: nitroxide-labeled peptide 598-616 V606C(R1) (ILNRLVQFC(R1)KDRISVVQAL; reading uncertain; UniProt P03385 631-649, looked up, variant V606C)”, for which the “contribution from the unbound peptide” value in data set [3] (upon addition to liposomes, judged from EPR line shapes) is “less than 1%”.
Take “WT: wild type MoMuLV ecotropic envelope protein”: the “Cell Surface Expression” value in data set [5] is 100. Besides, the “Titer (relative β-gal titer)” value in data set [6] amounted to 100. In data set [7], the “Fusion 293T/XC6” value was determined as 100. Besides, the “Fusion NIH3T” value in data set [8] was 0.
